Measured values taken from US9274100B2, “Method for optical measuring variations of cell membrane conductance” (OSPEDALE SAN RAFFAELE S.R.L., priority 2009, dated 2016).

Experiments:
HeLa cells [1] = experiment: Optical detection of changes in membrane conductance induced by aspecific permeabilization (fast-VSD, electric current pulses, internal control); format: cell-based; conditions: measures up to four minutes after administration, conductance normalised to value at t=0
Protocol: (§1) Before the experiment, cells were washed with a Krebs-Ringer's solution buffered with HEPES (KRH; in mM: 150 NaCl, 5 KCl, 1.2 MgSO4, 1.2 KH2PO4, 2 CaCl2, 10 glucose, and 10 HEPES, pH 7.4) and incubated with […] di-4-ANEPPS, a fast-VSD (Invitrogen).
(§2) Conductance changes were monitored by measuring the change in fluorescence induced by electric current pulses, quantified as the difference between the mean of plateau values (either positive or negative, depending on the type of stimulus and geometry of the cell) and the mean of pre-stimulation values divided by the mean of pre-stimulation values, ΔF %. As detailed above, normalisation for the values prevailing before stimulation provided a correction for dye bleaching during the experiment, so that fluorescence changes produced by additional stimuli could be compared. […]
(§3) The responsivity to the molecule active on membrane permeability was determined according to two different protocols: • Estimation of conductance with internal control (responses, before and after exposure to the experimental treatment, measured on the same pixels). […]
(§4) Afterward, membrane potential changes evoked by current pulses of fixed intensity were calculated within the same subcellular regions identified by the functional mask after exposure to the experimental treatment. […]

HeLa cells [2] = experiment: Optical detection of changes in plasma membrane conductance induced by streptolysin-O (fast-VSD, electric current pulses, internal control); format: cell-based; conditions: increasing streptolysin-O concentration (50, 100 and 150 units), hyperpolarising and depolarising responses
Protocol: as §1, §2, §3, §4

| Substance | effect on membrane conductance (HeLa cells [1]; 0.05% volume) | effect on membrane conductance (HeLa cells [1]; 0.5% volume) | Fast-VSD fluorescence variation during unipolar square pulse (HeLa cells [2]) |
| --- | --- | --- | --- |
| triton X-100 | negligible effect | marked drop | – |
| streptolysin-O: bacterial protein able to insert into the eukaryotic plasma membrane where it forms a non selective ionic channel | – | – | clear reduction in the fluorescence variation |
